Reference: patent publication EP4803519A1, “NOVEL PRMT5 INHIBITOR AND USE THEREOF” (Shanghai Apeiron Therapeutics Company Limited, priority 2023, dated 2025)

Tests used:
Format in all cases: cell-based
[1] = system: LU99 MTAP overexpressing cells; assay: Inhibitory activity on proliferation of LU99 MTAP overexpressing cells (Cell-Titer Glo); settings: Homo sapiens, Lu-99, 144 h, incubated 6 d, 0-10,000 nM
Procedure, shortened: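 After overnight seeding, LU99 cells overexpressing MTAP were exposed to compound at 0-10,000 nM (10 points, 2.5-fold dilutions, 0.2% DMSO) for 6 d at 37°C, 5% CO2. Viability read by Cell-Titer Glo luminescence.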

HCT-116 wild-type cells = assay: Inhibitory activity on proliferation of HCT-116 wild-type cells (Cell-Titer Glo); settings: Homo sapiens, 144 h, incubated 6 d, 0-10,000 nM
Procedure, shortened: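 HCT-116 wild-type cells in RPMI-1640 with 10% FBS were plated overnight, then exposed to compound for 6 d at 37°C (0–10,000 nM final, 2.5-fold, 10 points, 0.2% DMSO). Viability was read by Cell-Titer Glo luminescence.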

[2] = system: LU99 MTAP(-/-)deleted cells; assay: Inhibitory activity on proliferation of LU99 MTAP(-/-)deleted cells (Cell-Titer Glo); settings: Homo sapiens, Lu-99, 144 h, incubated 6 d, 0-1,000 nM
Procedure, shortened: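 Log-phase MTAP-deleted LU99 cells in 10%-FBS medium were plated overnight. Compound was then added at final 0–1,000 nM (10 points, 2.5-fold dilution from 1,000 nM) in 0.2% DMSO.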

[3] = system: HCT-116 MTAP(-/-)deleted cells; assay: Inhibitory activity on proliferation of HCT-116 MTAP(-/-)deleted cells (Cell-Titer Glo); settings: Homo sapiens, 144 h, incubated 6 d, 0-1,000 nM
Procedure, shortened: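 HCT-116 MTAP(-/-) cells in RPMI 1640 with 10% FBS were seeded overnight, then exposed to compound (10 points, 2.5-fold dilutions from 1,000 nM; 0.2% DMSO) for 6 d at 37 °C. Viability was read by CellTiter-Glo luminescence.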

IC50 (HCT-116 wild-type cells) | IC50 [3] | Compound | IC50 [1] | IC50 [2]
1140 nM | 5.2 nM | CN(C(=O)c1ccc2nc(N)c3cnn(C)c3c2c1)C1COC(C)(C)c2nc(C(F)(F)F)ccc21 (centres unmarked) [Example 39] | 1290 nM | 8.4 nM
1030 nM | 4.6 nM | CN(C(=O)c1ccc2nc(N)c3cnn(C)c3c2c1)[C@@H]1COC(C)(C)c2cc(-c3cncc(C(F)(F)F)c3)ccc21 [Example 41, (S)-4-amino-N-(1,1-dimethyl-7-(5-(trifluoromethyl)pyridin-3-yl)isochroman-4-yl)-N,1-dimethyl-1H-pyrazolo[4,3-c]quinoline-8-carboxamide] | 1860 nM | 6.1 nM
1760 nM | 4.4 nM | CN(C(=O)c1ccc2nc(N)c3cnn(C)c3c2c1)[C@@H]1COC(C)(C)c2cc(-c3cscn3)ccc21 [Example 42, N-((4S)-1,1-dimethyl-7-(1,3-thiazol-4-yl)isochroman-4-yl)(4-amino-1-methylpyrazolo[4,5-c]quinolin-8-yl)-N-methylformamide] | 1140 nM | 6.1 nM
2130 nM | 9.4 nM | CN(C(=O)c1ccc2nc(N)c3cnn(C)c3c2c1)C1COC(C)(C)c2cc(C(F)(F)F)ncc21 (centres unmarked) [Example 43, (4-Amino-1-methylpyrazolo[4,5-c]quinolin-8-yl)-N-[1,1-dimethyl-7-(trifluoromethyl)(1,4-dihydro-3H-pyrano[4,5-c]pyridin-4-yl)]-N-methylformamide] | 2570 nM | 12.3 nM
1600 nM | 5.9 nM | CN(C(=O)c1ccc2nc(N)c3cnn(C)c3c2c1)C1COC(C)(C)c2cc(-n3cc(C(F)(F)F)cn3)ccc21 (centres unmarked) [Example 47, 4-amino-N-(1,1-dimethyl-7-(4-(trifluoromethyl)-1H-pyrazol-1-yl)isochroman-4-yl)-N,1-dimethyl-1H-pyrazolo[4,3-c]quinoline-8-carboxamide] | 1380 nM | 7.5 nM
> 10000 nM | 413 nM | CN(C(=O)c1ccc2nc(N)c3cnn(C)c3c2c1)[C@@H]1COC(C)(C)c2nc(C(F)(F)F)ccc21 [Example 50] | 7400 nM | 525 nM
447 nM | 3.1 nM | CN(C(=O)c1ccc2nc(N)c3cnn(C)c3c2c1)[C@H]1COC(C)(C)c2nc(C(F)(F)F)ccc21 [Example 51] | 711 nM | 4.9 nM
10500 nM | 103 nM | CN(C(=O)c1ccc2nc(N)c3cnn(C)c3c2c1)[C@@H]1COC(C)(C)c2cc(N3CCNCC3)ccc21 [Example 83] | 12700 nM | 102 nM
1370 nM | 6.7 nM | CN(C(=O)c1ccc2nc(N)c3cnn(C)c3c2c1)[C@@H]1COC2(CCC2)c2cc(C(F)(F)F)ncc21 [Example 84, N-[(4S)-7-(trifluoromethyl)spiro[1,4-dihydro-3H-pyrano[4,5-c]pyridine-1,1'-cyclobutan]-4-yl](4-amino-1-methylpyrazolo[4,5-c]quinolin-8-yl)-N-methylformamide] | 1640 nM | 10 nM

More lines, now with the values behind:

Compound | IC50 (HCT-116 wild-type cells) | IC50 [3] | IC50 [1] | IC50 [2]
CN(C(=O)c1cc2c(cc1C(F)(F)F)nc(N)c1cnn(C)c12)[C@@H]1COC(C)(C)c2cc(C(F)(F)F)ccc21 [Example 38, N-[(4S)-1,1-dimethyl-7-(trifluoromethyl)isochroman-4-yl] [4-amino-1-methyl-7-(trifluoromethyl)pyrazolo[4,5-c]quinolin-8-yl]-N-methylformamide] | 1470 nM | 8.1 nM | 2050 nM | 15 nM
CN(C(=O)c1cc2c3c(c(N)nc2cn1)COC3)C1COC2(CC2)c2cc(C(F)(F)F)ccc21 (centres unmarked) [Example 40, 4-Amino-N-methyl-N-(7'-(trifluoromethyl)spiro[cyclopropane-1,1'-isochroman]-4'-yl)-1,3-dihydrofuro[3,4-c][1,7]naphthyridine-8-carboxamide] | 2200 nM | 13 nM | 2040 nM | 21.2 nM
CN(C(=O)c1cc2c3c(c(N)nc2cn1)COC3)[C@@H]1COC2(CCC2)c2cc(C(F)(F)F)ccc21 [Example 44, (S)-4-amino-N-methyl-N-(7'-(trifluoromethyl)spiro[cyclobutane-1,1'-isochroman]-4'-yl)-1,3-dihydrofuro[3,4-c][1,7]naphthyridine-8-carboxamide] | 837 nM | 7.9 nM | 673 nM | 12.2 nM
CN(C(=O)c1cc2c3c(c(N)nc2cn1)COC3)[C@H]1COC2(CCC2)c2cc(C(F)(F)F)ccc21 [Example 45, (R)-4-amino-N-methyl-N-(7'-(trifluoromethyl)spiro[cyclobutane-1,1'-isochroman]-4'-yl)-1,3-dihydrofuro[3,4-c][1,7]naphthyridine-8-carboxamide] | > 10000 nM | 874 nM | > 10000 nM | 944 nM
CN(C(=O)c1ccc2nc(N)c3cnn(C)c3c2c1)C1COC(C)(C)c2cc(-c3cccc4c3cnn4C)ccc21 (centres unmarked) [Example 46, 4-amino-N-(1,1-dimethyl-7-(1-methyl-1H-indazol-4-yl)isochroman-4-yl)-N,1-dimethyl-1H-pyrazolo[4,3-c]quinoline-8-carboxamide] | 1100 nM | 4.3 nM | 1050 nM | 7.9 nM
CN(C(=O)c1ccc2nc(N)c3cnn(C)c3c2c1)[C@@H]1COC(C)(C)c2cc(N3CC4(COC4)C3)ccc21 [Example 49, (S)-4-amino-N-(1,1-dimethyl-7-(2-oxa-6-azaspiro[3.3]heptan-6-yl)isochroman-4-yl)-N,1-dimethyl-1H-pyrazolo[4,3-c]quinoline-8-carboxamide] | 3850 nM | 7.9 nM | 5890 nM | 19.2 nM
CN1CCN(c2ccc3c(c2)C(C)(C)OCC3N(C)C(=O)c2ccc3nc(N)c4cnn(C)c4c3c2)CC1 (centres unmarked) [Example 80] | 3850 nM | 9.4 nM | 3660 nM | 16.8 nM
CN(C(=O)c1ccc2nc(N)c3cnn(C)c3c2c1)[C@@H]1COC(C)(C)c2cc(N3CCn4cncc4C3)ccc21 [Example 86, N-((4S)-7-imidazo[5,1-c]piperazin-7-yl-1,1-dimethylisochroman-4-yl)(4-amino-1-methylpyrazolo[4,5-c]quinolin-8-yl)-N-methylformamide] | 3790 nM | 21.6 nM | 7870 nM | 31 nM
